Test results published in US6326492A, “Heterocyclic protease inhibitors” (3-Dimensional Pharmaceuticals, Inc., priority 2000, dated 2001).
Where a name gives a salt, the structure may show the parent alone.

Molecular target: T1, Human α-thrombin (Homo sapiens, UniProt P00734)
T1 construct: Human α-thrombin, was obtained from Enzyme Research Laboratories; purchased Enzyme Research Laboratories (South Bend, Ind.)
Assay: In vitro inhibition of purified thrombin (Ki determination, p-nitroanilide substrate hydrolysis)
Format: biochemical
Details: purified human α-thrombin 0.5 nM, substrate N-succinyl-Ala-Ala-Pro-Arg-p-nitroanilide, 50 mM HEPES, 200 mM NaCl, pH 7.5, 37° C.; read-out: thrombin inhibitory activity
Description: Reagents: All buffer salts were obtained from Sigma Chemical Company (St. Louis, Mo.), and were of the highest purity available. The enzyme substrates, N-benzoyl-Phe-Val-Arg-p-nitroanilide (Sigma B7632), N-benzoyl-Ile-Glu-Gly-Arg-p-nitroanilide hydrochloride (Sigma B2291), N-p-Tosyl-Gly-Pro-Lys-p-nitroanilide (Sigma T6140), N-succinyl-Ala-Ala-Pro-Phe-p-nitroanilide (Sigma S7388) and N-CBZ-Val-Gly-Arg-p-nitroanilide (Sigma C7271) were obtained from Sigma. N-succinyl-Ala-Ala-Pro-Arg-p-nitroanilide (BACHEM L-1720) and N-succinyl-Ala-Ala-Pro-Val-p-nitroanilide (BACHEM L-1770) were obtained from BACHEM (King of Prussia, Pa.). […]
Ki Determinations: All assays are based on the ability of the test compound to inhibit the enzyme catalyzed hydrolysis of a peptide p-nitroanilide substrate. […] In general, substrate concentrations are lower than the experimentally determined value for Km. […]
In a typical Ki determination, into each well of a 96 well plate is pipetted […] of substrate solution, […] of test compound solution, and the plate allowed to thermally equilibrate at 37° C. in a Molecular Devices plate reader for>15 minutes. Reactions were initiated by the addition of a […] aliquot of enzyme and the absorbance increase at 405 nm is recorded for 15 minutes. […] The data are fit to a linear regression, and the value of the slope of the line calculated. […]

Ki | Structure (SMILES)
26 nM | Cc1cccc(S(=O)(=O)Nc2ccc(C)n(CC(=O)NCC3CNC(=N)NO3)c2=O)c1 (centres unmarked) [Example 1, N-[(3-Imino(1,2,4-oxadiazaperhydroin-6-yl))methyl]-2-(6methyl-3-{[(3methylphenyl)sulfonyl]amino}-2-oxohydropyridyl)acetamide trifluoroacetate]
0.38 nM | Cc1cccc(S(=O)(=O)Nc2ccc(C)n(CC(=O)NC3CCN(C(=N)N)OC3)c2=O)c1 (centres unmarked) [Example 2, 5-[2-(6-Methyl-3-{[(3-methylphenyl)sulfonyl]amino}-2-oxohydropyridyl)acetylamino]-1,2-oxazaperhydroine-2-carboxamidine trifluoroacetate]
